Assay results as given in the supplement of paper PMC10307832.

Legend:
Assay in all cases: relative viability (nuclei count vs DMSO), 5 days (fraction); higher = more cells survive
NCI-H1975 = tested on: NCI-H1975
Summary of the method: (§1)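 One day after seeding in 1536-well plates, lung cancer cell lines were dosed by pin tool. Dosing was either single-drug or a fixed anchor-drug dose plus five library-drug doses (not always all listed) in √10 steps. After 5 days, nuclei were stained in one fix-and-stain step and counted on 4× images, and relative viability is the nuclei count of treated wells over that of vehicle wells, given as the median of duplicate plates.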

NCI-H647 = tested on: NCI-H647
Summary of the method: as §1

SW 1573 = tested on: SW 1573
Summary of the method: as §1

NCI-H1755 = tested on: NCI-H1755
Summary of the method: as §1

NCI-H2342 = tested on: NCI-H2342
Summary of the method: as §1

A-427 = tested on: A-427
Summary of the method: as §1

NCI-H2228 = tested on: NCI-H2228
Summary of the method: as §1

NCI-H522 = tested on: NCI-H522
Summary of the method: as §1

NCI-H1915 = tested on: NCI-H1915
Summary of the method: as §1

HCC-78 = tested on: HCC-78
Summary of the method: as §1

RERF-LC-KJ = tested on: RERF-LC-KJ
Summary of the method: as §1

HCC-15 = tested on: HCC-15
Summary of the method: as §1

HOP-62 = tested on: HOP-62
Summary of the method: as §1

SK-LU-1 = tested on: SK-LU-1
Summary of the method: as §1

NCI-H2347 = tested on: NCI-H2347
Summary of the method: as §1

LXF-289 = tested on: LXF-289
Summary of the method: as §1

PC-3 [JPC-3] = tested on: PC-3 [JPC-3]
Summary of the method: as §1

NCI-H2126 = tested on: NCI-H2126
Summary of the method: as §1

LC-2-ad = tested on: LC-2-ad
Summary of the method: as §1

NCI-H1734 = tested on: NCI-H1734
Summary of the method: as §1

NCI-H358 = tested on: NCI-H358
Summary of the method: as §1

## CCN(CC)CCCCNc1ncc2cc(-c3cc(OC)cc(OC)c3)c(NC(=O)NC(C)(C)C)nc2n1 + O=C(CCCCCCC(=O)Nc1ccccc1)NO [Vorinostat] (partner 1 µM)
NCI-H1975; first compound 0.01 µM
  relative viability: 0.758
NCI-H1975; first compound 0.03162 µM
  relative viability: 0.756
NCI-H1975; first compound 0.1 µM
  relative viability: 0.853
NCI-H1975; first compound 0.3162 µM
  relative viability: 0.78
NCI-H1975; first compound 1 µM
  relative viability: 0.548
NCI-H647; first compound 0.01 µM
  relative viability: 0.525
NCI-H647; first compound 0.03162 µM
  relative viability: 0.645
NCI-H647; first compound 0.1 µM
  relative viability: 0.582
NCI-H647; first compound 0.3162 µM
  relative viability: 0.511
NCI-H647; first compound 1 µM
  relative viability: 0.491
SW 1573; first compound 0.01 µM
  relative viability: 0.79
SW 1573; first compound 0.03162 µM
  relative viability: 0.959
SW 1573; first compound 0.1 µM
  relative viability: 0.952
SW 1573; first compound 0.3162 µM
  relative viability: 0.707
SW 1573; first compound 1 µM
  relative viability: 0.705
NCI-H1755; first compound 0.01 µM
  relative viability: 0.71
NCI-H1755; first compound 0.03162 µM
  relative viability: 0.919
NCI-H1755; first compound 0.1 µM
  relative viability: 0.848
NCI-H1755; first compound 0.3162 µM
  relative viability: 0.965
NCI-H1755; first compound 1 µM
  relative viability: 0.746
NCI-H2342; first compound 0.01 µM
  relative viability: 0.699
NCI-H2342; first compound 0.03162 µM
  relative viability: 0.716
NCI-H2342; first compound 0.1 µM
  relative viability: 0.796
NCI-H2342; first compound 0.3162 µM
  relative viability: 0.708
NCI-H2342; first compound 1 µM
  relative viability: 0.875
A-427; first compound 0.01 µM
  relative viability: 0.806
A-427; first compound 0.03162 µM
  relative viability: 0.919
A-427; first compound 0.1 µM
  relative viability: 1.02
A-427; first compound 0.3162 µM
  relative viability: 0.926
A-427; first compound 1 µM
  relative viability: 0.817
NCI-H2228; first compound 0.01 µM
  relative viability: 0.643
NCI-H2228; first compound 0.03162 µM
  relative viability: 0.515
NCI-H2228; first compound 0.1 µM
  relative viability: 0.807
NCI-H2228; first compound 0.3162 µM
  relative viability: 0.794
NCI-H2228; first compound 1 µM
  relative viability: 0.595
NCI-H522; first compound 0.01 µM
  relative viability: 0.891
NCI-H522; first compound 0.03162 µM
  relative viability: 0.835
NCI-H522; first compound 0.1 µM
  relative viability: 1.19
NCI-H522; first compound 0.3162 µM
  relative viability: 0.948
NCI-H522; first compound 1 µM
  relative viability: 0.962
NCI-H1915; first compound 0.01 µM
  relative viability: 0.452
NCI-H1915; first compound 0.03162 µM
  relative viability: 0.531
NCI-H1915; first compound 0.1 µM
  relative viability: 0.537
NCI-H1915; first compound 0.3162 µM
  relative viability: 0.456
NCI-H1915; first compound 1 µM
  relative viability: 0.513
HCC-78; first compound 0.01 µM
  relative viability: 0.479
HCC-78; first compound 0.03162 µM
  relative viability: 0.487
HCC-78; first compound 0.1 µM
  relative viability: 0.478
HCC-78; first compound 0.3162 µM
  relative viability: 0.456
HCC-78; first compound 1 µM
  relative viability: 0.497
RERF-LC-KJ; first compound 0.01 µM
  relative viability: 0.748
RERF-LC-KJ; first compound 0.03162 µM
  relative viability: 0.71
RERF-LC-KJ; first compound 0.1 µM
  relative viability: 0.764
RERF-LC-KJ; first compound 0.3162 µM
  relative viability: 0.794
RERF-LC-KJ; first compound 1 µM
  relative viability: 0.661
HCC-15; first compound 0.01 µM
  relative viability: 0.857
HCC-15; first compound 0.03162 µM
  relative viability: 0.849
HCC-15; first compound 0.1 µM
  relative viability: 0.867
HCC-15; first compound 0.3162 µM
  relative viability: 0.929
HCC-15; first compound 1 µM
  relative viability: 0.836
HOP-62; first compound 0.01 µM
  relative viability: 0.715
HOP-62; first compound 0.03162 µM
  relative viability: 0.595
HOP-62; first compound 0.1 µM
  relative viability: 0.616
HOP-62; first compound 0.3162 µM
  relative viability: 0.65
HOP-62; first compound 1 µM
  relative viability: 0.663
SK-LU-1; first compound 0.01 µM
  relative viability: 0.922
SK-LU-1; first compound 0.03162 µM
  relative viability: 0.795
SK-LU-1; first compound 0.1 µM
  relative viability: 0.782
SK-LU-1; first compound 0.3162 µM
  relative viability: 0.973
SK-LU-1; first compound 1 µM
  relative viability: 0.67
NCI-H2347; first compound 0.01 µM
  relative viability: 0.509
NCI-H2347; first compound 0.03162 µM
  relative viability: 0.543
NCI-H2347; first compound 0.1 µM
  relative viability: 0.705
NCI-H2347; first compound 0.3162 µM
  relative viability: 0.588
NCI-H2347; first compound 1 µM
  relative viability: 0.472
LXF-289; first compound 0.01 µM
  relative viability: 0.768
LXF-289; first compound 0.03162 µM
  relative viability: 0.905
LXF-289; first compound 0.1 µM
  relative viability: 0.829
LXF-289; first compound 0.3162 µM
  relative viability: 0.85
LXF-289; first compound 1 µM
  relative viability: 0.661
PC-3 [JPC-3]; first compound 0.03162 µM
  relative viability: 0.659
PC-3 [JPC-3]; first compound 0.1 µM
  relative viability: 0.937
PC-3 [JPC-3]; first compound 0.3162 µM
  relative viability: 1.18
PC-3 [JPC-3]; first compound 1 µM
  relative viability: 0.698
NCI-H2126; first compound 0.01 µM
  relative viability: 0.771
NCI-H2126; first compound 0.03162 µM
  relative viability: 0.834
NCI-H2126; first compound 0.1 µM
  relative viability: 0.807
NCI-H2126; first compound 0.3162 µM
  relative viability: 0.834
NCI-H2126; first compound 1 µM
  relative viability: 0.822
LC-2-ad; first compound 0.01 µM
  relative viability: 0.716
LC-2-ad; first compound 0.03162 µM
  relative viability: 0.798
LC-2-ad; first compound 0.1 µM
  relative viability: 0.76
LC-2-ad; first compound 0.3162 µM
  relative viability: 0.739
LC-2-ad; first compound 1 µM
  relative viability: 0.66
NCI-H1734; first compound 0.01 µM
  relative viability: 0.849
NCI-H1734; first compound 0.03162 µM
  relative viability: 0.874
NCI-H1734; first compound 0.1 µM
  relative viability: 0.974
NCI-H1734; first compound 0.3162 µM
  relative viability: 0.864
NCI-H1734; first compound 1 µM
  relative viability: 0.757
NCI-H358; first compound 0.01 µM
  relative viability: 0.684
NCI-H358; first compound 0.03162 µM
  relative viability: 0.879
NCI-H358; first compound 0.1 µM
  relative viability: 0.813
NCI-H358; first compound 0.3162 µM
  relative viability: 0.806
NCI-H358; first compound 1 µM
  relative viability: 0.583
